Experimental data from patent US5593970A, “Heterocyclic anthracycline analogs” (priority 1994, dated 1997).
Where a name gives a salt, the structure may show the parent alone. Read-outs that look alike come from different tables or passages of the source.

Columns and labels:
[1] = test system: HT29; experiment: Soft agar colony formation disk diffusion assay; type: cell-based, human
Method in brief: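 Cells were plated at 10^4–2×10^5 cells per dish in a 0.4% Noble agar upper layer over 0.8% agar. The compound (DMSO/water solution) was applied on a 6.5 mm filter disk, and plates were incubated at 37 °C, 5% CO2 for 10–20 days. Anti-clonogenic activity was measured microscopically as the inhibition zone from the disk edge to the nearest colonies (>50 cells).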

[2] = test system: MATB.WT; experiment: Soft agar colony formation disk diffusion assay; type: cell-based, rat
Method in brief: (§1)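 Anti-clonogenic activity is scored as the distance from the drug-loaded disk edge to the closest colony of more than 50 cells. Solid tumour and leukaemia lines are plated in separate dishes in two-layer soft agar and incubated 10-20 days at 37° C.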

[3] = test system: MATB/ADR; experiment: Soft agar colony formation disk diffusion assay; type: cell-based, rat
Method in brief: as §1

[4] = test system: B16; experiment: Soft agar colony formation disk diffusion assay; type: cell-based, murine
Method in brief: as §1

[5] = test system: LL; experiment: Soft agar colony formation disk diffusion assay; type: cell-based, murine
Method in brief: as §1

[6] = test system: M5076; experiment: Soft agar colony formation disk diffusion assay; type: cell-based, murine
Method in brief: as §1

[7] = test system: P388/ADR; experiment: Soft agar colony formation disk diffusion assay; type: cell-based, murine
Method in brief: as §1

[8] = test system: P388; experiment: Soft agar colony formation disk diffusion assay; type: cell-based, murine
Method in brief: as §1

[9] = test system: SKVLB; experiment: Microculture tetrazolium assay; type: cell-based; settings: for VLB/OV3: IC50 ratio SKVLB/SKOV3; for IC50: SKVLB, read-out: IC50
[10] = test system: LOX; experiment: Microculture tetrazolium assay; type: cell-based; settings: read-out: IC50
[11] = test system: HT29; experiment: Microculture tetrazolium assay; type: cell-based; settings: read-out: IC50

Compound	zone of inhibition ([1]; 10 μg/DISK)	zone of inhibition ([1]; 100 μg/DISK)	zone of inhibition ([2]; 10 μg/DISK)	zone of inhibition ([2]; 100 μg/DISK)	zone of inhibition ([3]; 10 μg/DISK)	zone of inhibition ([3]; 100 μg/DISK)	zone of inhibition ([4]; 10 μg/DISK)	zone of inhibition ([4]; 100 μg/DISK)	zone of inhibition ([5]; 10 μg/DISK)	zone of inhibition ([5]; 100 μg/DISK)	zone of inhibition ([6]; 10 μg/DISK)	zone of inhibition ([6]; 100 μg/DISK)	zone of inhibition ([7]; 10 μg/DISK)	zone of inhibition ([7]; 100 μg/DISK)	zone of inhibition ([8]; 10 μg/DISK)	zone of inhibition ([8]; 100 μg/DISK)	VLB/OV3 [9]	IC50 [9]	IC50 [10]	IC50 ([11]; Homo sapiens, HT-29, HT29)	other results
COC(=O)[C@H]1CC2=C(C(=O)c3c(c(OC)c4ccccc4c3O)C2=O)[C@H](O[C@H]2C[C@H](NC(=O)C(F)(F)F)[C@H](O)[C@H](C)O2)O1 (mixture of isomers) [BCH-675, (1'S,1S,3R) and 1'S,1R,3S) Methyl(11-hydroxy-6-methoxy-1-[2',3',6'-trideoxy-3-trifluoroacetamido-4'-hydroxy-L-lyxohexopyranose]-5,12-dioxo-3,4,5,12-tetrahydroanthra-ceno[2,3-c]pyran-3-yl) formate]	0 Zone Units	0 Zone Units	0 Zone Units	32.5 ± 9.3 Zone Units	22.3 ± 3.5 Zone Units	59.4 ± 8.6 Zone Units	0 Zone Units	0 Zone Units	75.2 ± 40.5 Zone Units	264.0 ± 38.0 Zone Units	0 Zone Units	142.0 ± 35.2 Zone Units	10.1 ± 9.3 Zone Units	146.3 ± 32.3 Zone Units	0 Zone Units	152.5 ± 30.5 Zone Units	0.43	3.97 µM	4.29 µM	5.26 µM	
CCOC(=O)C1CC2=C(CO1)C(=O)c1c(c(O)c3ccccc3c1OC(C)=O)C2=O (centres unmarked) [BCH-654, Ethyl[11-acetoxy-6-hydroxy-5,12-dioxo-3,4,5,12-tetrahydroanthraceno(2,3-c)pyran-3-yl]formate]	0 Zone Units	106.5 ± 21.9 Zone Units	0 Zone Units	152.5 ± 25.8 Zone Units	0 Zone Units	134.3 ± 17.3 Zone Units	0 Zone Units	137.4 ± 21.8 Zone Units		0 Zone Units	0 Zone Units	0 Zone Units	0 Zone Units	0 Zone Units	0 Zone Units	0 Zone Units	0.58	57.1 µM	70.5 µM	47.3 µM	
3-(2-hydroxy)aceto-6-hydroxy-1,2,3,4-tetrahydro-(2-oxygen)naphthacene-5,12-dione and 3-(2-hydroxy)aceto-11-hydroxy-1,2,3,4-tetrahydro-(2-oxygen)naphthacene-5,12-dione [BCH-694]	30.5 ± 8.6 Zone Units	143.3 ± 30.1 Zone Units	76.2 ± 2.5 Zone Units	207.0 ± 33.9 Zone Units	27.4 ± 4.3 Zone Units	213.5 ± 43.1 Zone Units	0 Zone Units	128.0 ± 26.0 Zone Units		30.5 ± 8.6 Zone Units	27.4 ± 4.3 Zone Units	137.2 ± 99.2 Zone Units	6.1 ± 8.6 Zone Units	39.6 ± 12.9 Zone Units	67.1 ± 8.6 Zone Units	115.9 ± 94.8 Zone Units	2.18	17.9 µM	15 µM		IC50 ([11]; HT29): 13.4 µM
CCOC(=O)C1CC2=C(CO1)C(=O)c1c(cc3ccccc3c1O)C2=O (centres unmarked) [BCH-651, Ethyl(6 and 11 hydroxy-5,12-dioxo-3,4,5,12-tetrahydro-anthraceno[2,3-c]pyran-3-yl)]formate]	0 Zone Units	61.0 ± 1.0 Zone Units	0 Zone Units	36.6 ± 8.6 Zone Units	0 Zone Units	100.0 Zone Units	0 Zone Units	27.5 ± 13.4 Zone Units		27.4 ± 4.3 Zone Units	15.2 ± 4.3 Zone Units	51.3 ± 43.3 Zone Units	10.0 ± 0.0 Zone Units	30.5 ± 8.6 Zone Units	45.7 ± 12.9 Zone Units	294.5 ± 101.1 Zone Units	1.13	23.6 µM	22.1 µM	17 µM	
COC(=O)[C@@H]1CC2=C(C(=O)c3c(cc4ccccc4c3O)C2=O)[C@@H](O[C@H]2C[C@H](NC(=O)C(F)(F)F)[C@H](O)[C@H](C)O2)O1 [BCH-691, (1'S,1R,3S)-Methyl-{11-hydroxy-1-(2',3',6'-trideoxy-3'-trifluoroacetamido-4'-hydroxy-L-lyxoheoxpyranose)-5,12-dioxo-3,4,5,12-tetrahydroanthraceno[2,3-c]pyran-3-yl}formate]	137.0 ± 21.2 Zone Units	198.0 ± 21.2 Zone Units	120.0 ± 50.5 Zone Units	380.0 ± 120.0 Zone Units	0 Zone Units	200.0 ± 95.0 Zone Units	114.0 ± 30.2 Zone Units	250.0 ± 58.0 Zone Units	50.6 ± 25.5 Zone Units	180.0 ± 120.0 Zone Units	120.0 ± 28.8 Zone Units	220.0 ± 50.8 Zone Units	50.0 ± 10.0 Zone Units	98.0 ± 15.0 Zone Units	100.5 ± 50.0 Zone Units	200.2 ± 50.0 Zone Units	1.11	1.41 µM	1.37 µM	0.301 µM	
COC(=O)[C@H]1CC2=C(C(=O)c3c(cc4ccccc4c3O)C2=O)[C@H](O[C@H]2C[C@H](NC(=O)C(F)(F)F)[C@H](O)[C@H](C)O2)O1 (mixture of isomers) [BCH-692, (1'S,1S,3R) and (1'S,1R,3S) Methyl[11-hydroxy-1-(2',3',6'-trideoxy-3'-trifluoroacetamido-4'-hydroxy-L-lyxohexopyranose)-5,12-dioxo-3,4,5,12-tetrahydro-anthraceno[2,3-c]pyran-3-yl]formate]	105.0 ± 5.0 Zone Units		150.0 ± 18.5 Zone Units	400.5 ± 100.0 Zone Units	0 Zone Units	180.0 ± 50.5 Zone Units	0 Zone Units	200.0 ± 55.0 Zone Units	80.5 ± 20.5 Zone Units	140.3 ± 40.5 Zone Units	50.0 ± 25.5 Zone Units	200.0 ± 100.0 Zone Units	25.0 ± 10.0 Zone Units	150.5 ± 50.0 Zone Units	50.5 ± 10.9 Zone Units	180.0 ± 50.6 Zone Units	0.62	1.77 µM	3.89 µM	2.18 µM	
CCOC(=O)[C@@H]1CC2=C(C(=O)c3c(c(O)c4ccccc4c3OC(C)=O)C2=O)[C@@H](O)O1 (mixture of isomers) [BCH-658, (1S,3S) and (1R,3R) Ethyl[11-acetoxy-1,6-dihydroxy-5,12-dioxo-3,4,5,12-tetrahydroanthraceno (2,3-c)pyran-3-yl]formate]	0 Zone Units	0 Zone Units	0 Zone Units	0 Zone Units	0 Zone Units	0 Zone Units	0 Zone Units	0 Zone Units		51.9 ± 21.5 Zone Units	26.6 ± 13.6 Zone Units	76.2 ± 21.5 Zone Units	18.3 ± 8.6 Zone Units	51.3 ± 20.7 Zone Units	42.7 ± 17.2 Zone Units	61.0 ± 0.0 Zone Units		> 100 µM	66.2 µM	> 100 µM	
